Measurements reported in PubChem BioAssay (NCI).
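96-well plates; 48 h exposure; 5 concentrations. Endpoints by linear interpolation between flanking doses. Not reached: highest tested concentration assigned. Here, GI50 denotes the concentration required for 50% inhibition of growth. TGI is the concentration that stops growth completely.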

Legend:
Assay in all cases: NCI tumour cell line growth inhibition, 48 h
UACC-62 melanoma = test system: UACC-62 melanoma
NCI-H460 lung = test system: NCI-H460 lung
DU-145 prostate = test system: DU-145 prostate
HCT-15 colon = test system: HCT-15 colon
786-0 renal = test system: 786-0 renal
KM12 colon = test system: KM12 colon
SK-OV-3 ovarian = test system: SK-OV-3 ovarian
SR leukemia = test system: SR leukemia
OVCAR-4 ovarian = test system: OVCAR-4 ovarian
SF-268 CNS = test system: SF-268 CNS
K-562 leukemia = test system: K-562 leukemia
HOP-92 NSCLC = test system: HOP-92 NSCLC
UACC-257 melanoma = test system: UACC-257 melanoma
HS 578T breast = test system: HS 578T breast
SNB-75 CNS = test system: SNB-75 CNS
LOX IMVI melanoma = test system: LOX IMVI melanoma
UO-31 renal = test system: UO-31 renal
MOLT-4 leukemia = test system: MOLT-4 leukemia
HL-60(TB) leukemia = test system: HL-60(TB) leukemia
NCI-H226 lung = test system: NCI-H226 lung
ACHN renal = test system: ACHN renal
OVCAR-8 ovarian = test system: OVCAR-8 ovarian
M14 melanoma = test system: M14 melanoma
HOP-62 NSCLC = test system: HOP-62 NSCLC
COLO 205 colon = test system: COLO 205 colon
OVCAR-3 ovarian = test system: OVCAR-3 ovarian
NCI/ADR-RES ovarian = test system: NCI/ADR-RES ovarian
SW-620 colon = test system: SW-620 colon
RPMI-8226 leukemia = test system: RPMI-8226 leukemia
MDA-MB-231 breast = test system: MDA-MB-231 breast
HCT-116 colon = test system: HCT-116 colon
A549 NSCLC = test system: A549 NSCLC
U251 CNS = test system: U251 CNS
OVCAR-5 ovarian = test system: OVCAR-5 ovarian
TK-10 renal = test system: TK-10 renal
MDA-MB-435 = test system: MDA-MB-435
NCI-H522 lung = test system: NCI-H522 lung
EKVX NSCLC = test system: EKVX NSCLC
PC-3 prostate = test system: PC-3 prostate
SF-295 CNS = test system: SF-295 CNS
IGROV1 ovarian = test system: IGROV1 ovarian
SK-MEL-5 melanoma = test system: SK-MEL-5 melanoma
CAKI-1 renal = test system: CAKI-1 renal
SK-MEL-2 melanoma = test system: SK-MEL-2 melanoma
BT-549 breast = test system: BT-549 breast
SN12C renal = test system: SN12C renal
RXF 393 renal = test system: RXF 393 renal
SNB-19 CNS = test system: SNB-19 CNS
SK-MEL-28 melanoma = test system: SK-MEL-28 melanoma
T-47D breast = test system: T-47D breast

**Q.** With `c1ccc2[nH]c(-c3ccc(NN=Nc4ccncc4)cc3)nc2c1` as the molecule, how does the GI50 (UACC-62 melanoma) read?
**A.** 75.1 µM

**Q.** What about the TGI (UACC-62 melanoma) of the same molecule?
**A.** > 100 µM

**Q.** And the GI50 (NCI-H460 lung)?
**A.** 2.46 µM

**Q.** What about the TGI (NCI-H460 lung) of the same molecule?
**A.** > 100 µM

**Q.** What about the GI50 (DU-145 prostate) of the same molecule?
**A.** 47 µM

**Q.** And the TGI (DU-145 prostate)?
**A.** > 100 µM

**Q.** What about the GI50 (HCT-15 colon) of the same molecule?
**A.** 17.7 µM

**Q.** What about the TGI (HCT-15 colon) of the same molecule?
**A.** > 100 µM

**Q.** What about the GI50 (786-0 renal) of the same molecule?
**A.** 99.9 µM

**Q.** And the TGI (786-0 renal)?
**A.** > 100 µM

**Q.** And the GI50 (KM12 colon)?
**A.** 23 µM

**Q.** What about the TGI (KM12 colon) of the same molecule?
**A.** > 100 µM

**Q.** And the GI50 (SK-OV-3 ovarian)?
**A.** > 100 µM

**Q.** What about the TGI (SK-OV-3 ovarian) of the same molecule?
**A.** > 100 µM

**Q.** What about the GI50 (SR leukemia) of the same molecule?
**A.** 47.7 µM

**Q.** And the TGI (SR leukemia)?
**A.** > 100 µM

**Q.** And the GI50 (OVCAR-4 ovarian)?
**A.** 39.5 µM

**Q.** What about the TGI (OVCAR-4 ovarian) of the same molecule?
**A.** > 100 µM

**Q.** What about the GI50 (SF-268 CNS) of the same molecule?
**A.** 4.81 µM

**Q.** And the TGI (SF-268 CNS)?
**A.** 74.4 µM

**Q.** And the GI50 (K-562 leukemia)?
**A.** 14.6 µM

**Q.** And the TGI (K-562 leukemia)?
**A.** 61.8 µM

**Q.** And the GI50 (HOP-92 NSCLC)?
**A.** 91.5 µM

**Q.** And the TGI (HOP-92 NSCLC)?
**A.** > 100 µM

**Q.** What about the GI50 (UACC-257 melanoma) of the same molecule?
**A.** > 100 µM

**Q.** What about the TGI (UACC-257 melanoma) of the same molecule?
**A.** > 100 µM

**Q.** What about the GI50 (HS 578T breast) of the same molecule?
**A.** > 100 µM

**Q.** And the TGI (HS 578T breast)?
**A.** > 100 µM

**Q.** What about the GI50 (SNB-75 CNS) of the same molecule?
**A.** > 100 µM

**Q.** What about the TGI (SNB-75 CNS) of the same molecule?
**A.** > 100 µM

**Q.** And the GI50 (LOX IMVI melanoma)?
**A.** 6.59 µM

**Q.** What about the TGI (LOX IMVI melanoma) of the same molecule?
**A.** 38.4 µM

**Q.** And the GI50 (UO-31 renal)?
**A.** 43.6 µM

**Q.** What about the TGI (UO-31 renal) of the same molecule?
**A.** > 100 µM

**Q.** What about the GI50 (MOLT-4 leukemia) of the same molecule?
**A.** > 100 µM

**Q.** And the TGI (MOLT-4 leukemia)?
**A.** > 100 µM

**Q.** What about the GI50 (HL-60(TB) leukemia) of the same molecule?
**A.** > 100 µM

**Q.** And the TGI (HL-60(TB) leukemia)?
**A.** > 100 µM

**Q.** And the GI50 (NCI-H226 lung)?
**A.** > 100 µM

**Q.** And the TGI (NCI-H226 lung)?
**A.** > 100 µM

**Q.** And the GI50 (ACHN renal)?
**A.** 31.2 µM

**Q.** What about the TGI (ACHN renal) of the same molecule?
**A.** > 100 µM

**Q.** What about the GI50 (OVCAR-8 ovarian) of the same molecule?
**A.** 5.57 µM

**Q.** And the TGI (OVCAR-8 ovarian)?
**A.** > 100 µM

**Q.** What about the GI50 (M14 melanoma) of the same molecule?
**A.** > 100 µM

**Q.** And the TGI (M14 melanoma)?
**A.** > 100 µM

**Q.** What about the GI50 (HOP-62 NSCLC) of the same molecule?
**A.** > 100 µM

**Q.** What about the TGI (HOP-62 NSCLC) of the same molecule?
**A.** > 100 µM

**Q.** What about the GI50 (COLO 205 colon) of the same molecule?
**A.** 27 µM

**Q.** And the TGI (COLO 205 colon)?
**A.** > 100 µM

**Q.** What about the GI50 (OVCAR-3 ovarian) of the same molecule?
**A.** 15.1 µM

**Q.** What about the TGI (OVCAR-3 ovarian) of the same molecule?
**A.** > 100 µM

**Q.** And the GI50 (NCI/ADR-RES ovarian)?
**A.** > 100 µM

**Q.** What about the TGI (NCI/ADR-RES ovarian) of the same molecule?
**A.** > 100 µM

**Q.** What about the GI50 (SW-620 colon) of the same molecule?
**A.** 49.7 µM

**Q.** What about the TGI (SW-620 colon) of the same molecule?
**A.** > 100 µM

**Q.** And the GI50 (RPMI-8226 leukemia)?
**A.** 6.3 µM

**Q.** What about the TGI (RPMI-8226 leukemia) of the same molecule?
**A.** 38.4 µM

**Q.** And the GI50 (MDA-MB-231 breast)?
**A.** > 100 µM

**Q.** What about the TGI (MDA-MB-231 breast) of the same molecule?
**A.** > 100 µM

**Q.** And the GI50 (HCT-116 colon)?
**A.** 26.3 µM

**Q.** What about the TGI (HCT-116 colon) of the same molecule?
**A.** > 100 µM

**Q.** And the GI50 (A549 NSCLC)?
**A.** > 100 µM

**Q.** What about the TGI (A549 NSCLC) of the same molecule?
**A.** > 100 µM

**Q.** What about the GI50 (U251 CNS) of the same molecule?
**A.** 27.2 µM

**Q.** What about the TGI (U251 CNS) of the same molecule?
**A.** > 100 µM

**Q.** And the GI50 (OVCAR-5 ovarian)?
**A.** > 100 µM

**Q.** What about the TGI (OVCAR-5 ovarian) of the same molecule?
**A.** > 100 µM

**Q.** And the GI50 (TK-10 renal)?
**A.** 52.5 µM

**Q.** What about the TGI (TK-10 renal) of the same molecule?
**A.** > 100 µM

**Q.** What about the GI50 (MDA-MB-435) of the same molecule?
**A.** 30.7 µM

**Q.** What about the TGI (MDA-MB-435) of the same molecule?
**A.** > 100 µM

**Q.** What about the GI50 (NCI-H522 lung) of the same molecule?
**A.** 77.6 µM

**Q.** And the TGI (NCI-H522 lung)?
**A.** > 100 µM

**Q.** What about the GI50 (EKVX NSCLC) of the same molecule?
**A.** 11.2 µM

**Q.** What about the TGI (EKVX NSCLC) of the same molecule?
**A.** 54.1 µM

**Q.** What about the GI50 (PC-3 prostate) of the same molecule?
**A.** 33 µM

**Q.** And the TGI (PC-3 prostate)?
**A.** > 100 µM

**Q.** And the GI50 (SF-295 CNS)?
**A.** 16.4 µM

**Q.** What about the TGI (SF-295 CNS) of the same molecule?
**A.** > 100 µM

**Q.** What about the GI50 (IGROV1 ovarian) of the same molecule?
**A.** > 100 µM

**Q.** What about the TGI (IGROV1 ovarian) of the same molecule?
**A.** > 100 µM

**Q.** What about the GI50 (SK-MEL-5 melanoma) of the same molecule?
**A.** 24.1 µM

**Q.** What about the TGI (SK-MEL-5 melanoma) of the same molecule?
**A.** > 100 µM

**Q.** And the GI50 (CAKI-1 renal)?
**A.** 5.2 µM

**Q.** And the TGI (CAKI-1 renal)?
**A.** > 100 µM

**Q.** What about the GI50 (SK-MEL-2 melanoma) of the same molecule?
**A.** 15.4 µM

**Q.** And the TGI (SK-MEL-2 melanoma)?
**A.** > 100 µM

**Q.** And the GI50 (BT-549 breast)?
**A.** 4.39 µM

**Q.** What about the TGI (BT-549 breast) of the same molecule?
**A.** > 100 µM

**Q.** And the GI50 (SN12C renal)?
**A.** > 100 µM

**Q.** And the TGI (SN12C renal)?
**A.** > 100 µM

**Q.** What about the GI50 (RXF 393 renal) of the same molecule?
**A.** 58.1 µM

**Q.** And the TGI (RXF 393 renal)?
**A.** > 100 µM

**Q.** And the GI50 (SNB-19 CNS)?
**A.** > 100 µM

**Q.** What about the TGI (SNB-19 CNS) of the same molecule?
**A.** > 100 µM

**Q.** And the GI50 (SK-MEL-28 melanoma)?
**A.** 16.6 µM

**Q.** What about the TGI (SK-MEL-28 melanoma) of the same molecule?
**A.** 51.6 µM

**Q.** And the GI50 (T-47D breast)?
**A.** 93 µM

**Q.** What about the TGI (T-47D breast) of the same molecule?
**A.** > 100 µM
